Assay results: PMC3715522, “Characterization of Fructose-1,6-Bisphosphate Aldolase during Anoxia in the Tolerant Turtle, Trachemys scripta elegans: An Assessment of Enzyme Activity, Expression and Structure” (PLoS ONE, 2013)

Tested on: T1, turtle liver aldolase (ALDOA/ALDOB, suggested heterotetramer)
T1 construct: native, purified from liver of normoxic adult females (DEAE+, two Cibacron Blue steps); ~37 kDa subunit
Assay: coupled NADH assay (alpha-glycerophosphate dehydrogenase / triose phosphate isomerase), […] nm
Assay type: biochemical, Trachemys scripta elegans
Conditions: enzyme from normoxic liver; 100 mM KPi pH 7.2, 10 mM EDTA, 25 °C; A/B isoenzyme mixture or heterotetramer

| SMILES | Km |
| --- | --- |
| O=P(O)(O)OCC1(O)O[C@H](CO)[C@@H](O)[C@@H]1O (some centres unmarked) [F1P, fructose-1-phosphate] | ~14 mM |
| O=P(O)(O)OC[C@H]1OC(O)(COP(=O)(O)O)[C@@H](O)[C@@H]1O (some centres unmarked) [FBP, fructose-1,6-bisphosphate] | 0.00024 ± 3e-05 mM |
